≈ marks a conversion by molar mass, not a printed value. Read-outs that look alike come from different tables or passages of the source.
Legend:
[1] = test system: HCT-116 (human colon carcinoma); test: MTS cytotoxicity / antiproliferative assay; format: cell-based
Protocol: (§1) Cell lines included three human colon cancer cells: HT-29 (human colon adenocarcinoma), HCT116 (human colon carcinoma) and Caco-2 (human epithelial colorectal adenocarcinoma). In addition, normal human colon cells are included: CCD-^18Co (human colon fibroblasts). All cell lines are obtained from the American Type Culture Collection (ATCC, Rockville, Md., USA) and maintained at the University of Rhode Island.
(§2) The assay is carried out to measure the IC50 values for samples. […] Test samples and a positive control, etoposide 4 mg/mL (Sigma), are solubilized in DMSO by sonication. […] Control wells are also included on all plates. […] Each point on the curve is […]. Data (see tables 6 to 9) are expressed as mean±SE for three replications on each cell line.

[2] = test system: CCD-18Co (normal human colon fibroblasts); test: MTS cytotoxicity / antiproliferative assay; format: cell-based; conditions: 72 h, 72 h
Protocol: as §1, §2

[3] = test system: HT-29 (human colon adenocarcinoma); test: MTS cytotoxicity / antiproliferative assay; format: cell-based
Protocol: as §1, §2

[4] = test system: Caco-2 (human epithelial colorectal adenocarcinoma); test: MTS cytotoxicity / antiproliferative assay; format: cell-based
Protocol: as §1, §2

[5] = DPPH radical scavenging (antioxidant) assay; format: biochemical; conditions: Table 10; mean ± standard deviation; 30 min, 515 nm; read-out: IC50 (μM), DPPH radical scavenging
Protocol: The DPPH radical scavenging activity of ascorbic acid (vitamin C) and the synthetic commercial antioxidant, butylated hydroxytoluene (BHT) are also assayed as positive controls (see Table 10). […] Absorbance is determined after 30 min at 515 nm, and the scavenging capacity (SC) is calculated as SC %=[(A0−A1/A0)]×100, where A0 is the absorbance of the reagent blank and A1 is the absorbance of the test samples. The control contained all reagents except the compounds, and all tests are performed in triplicate.
Absorbance is determined after 30 min at 515 nm, and the scavenging capacity (SC) is calculated as SC %=[(A0−A1/A0)]×100 where A0 is the absorbance of the reagent blank, and A1 is the absorbance with test samples. The control contained all reagents except the compounds and all tests are performed in triplicate.

[6] = test system: colon cancer (HCT-116, Caco-2 and HT-29) cell lines; test: MTS antiproliferative assay, statements pooled over the colon cancer cell lines; conditions: Homo sapiens, read-out: IC50 range, MTS assay, ginnalins, colon cell lines
[7] = Homo sapiens, HCT-116, 48 h, read-out: Antiproliferative activity HCT-116 48 h (IC50), 48 h, pure isolated compounds
[8] = Homo sapiens, HCT-116, 48 h, read-out: HCT-116 48 h(IC50), Table 6 maple compounds, 48 h, unit inferred
[9] = Homo sapiens, HCT-116, 72 h, 72 h, pure isolated compounds, read-out: Antiproliferative activity HCT-116 72 h (IC50)
[10] = Homo sapiens, HCT-116, 72 h, 72 h, range given for the group, read-out: IC50 against HCT-116 cells at 72 h (activity ranking)
[11] = Homo sapiens, HCT-116, 72 h, Table 6 maple compounds, 72 h, unit inferred, read-out: HCT-116 72 h(IC50)
[12] = Homo sapiens, CCD-18Co, Table 6 maple compounds, unit inferred, read-out: CCD-18Co 72 h(IC50)
[13] = Homo sapiens, CCD-18Co, pure isolated compounds, read-out: Antiproliferative activity CCD-8Co 72 h (IC50)
[14] = Homo sapiens, HT-29, 48 h, read-out: Antiproliferative activity HT-29 48 h (IC50), 48 h, pure isolated compounds
[15] = Homo sapiens, HT-29, 48 h, read-out: HT-29 48 h(IC50), Table 6 maple compounds, 48 h, unit inferred
[16] = Homo sapiens, HT-29, 72 h, 72 h, pure isolated compounds, read-out: Antiproliferative activity HT-29 72 h (IC50)
[17] = Homo sapiens, HT-29, 72 h, Table 6 maple compounds, 72 h, unit inferred, read-out: HT-29 72 h(IC50)
[18] = Homo sapiens, Caco-2, 48 h, read-out: Antiproliferative activity Caco-2 48 h (IC50), 48 h, pure isolated compounds
[19] = Homo sapiens, Caco-2, 48 h, read-out: Caco-2 48 h(IC50), Table 6 maple compounds, 48 h, unit inferred
[20] = Homo sapiens, Caco-2, 72 h, 72 h, pure isolated compounds, read-out: Antiproliferative activity Caco-2 72 h (IC50)
[21] = Homo sapiens, Caco-2, 72 h, Table 6 maple compounds, 72 h, unit inferred, read-out: Caco-2 72 h(IC50)

O=Cc1ccc(O)c(O)c1 [compound 14, catechaldehyde]
IC50 [1, 7]: 63.3 ± 1.3 µM
IC50 [1, 8]: 63.3 µM
IC50 [1, 9]: 52.9 ± 1.4 µM
IC50 [1, 10]: 42 to 67 µM
IC50 [1, 11]: 52.9 µM
IC50 [2, 12]: 126 µM
IC50 [2, 13]: 126 ± 4.6 µM
IC50 [3, 14]: 71.6 ± 1.5 µM
IC50 [3, 15]: 71.6 µM
IC50 [3, 16]: 63.9 ± 1.6 µM
IC50 [3, 17]: 63.9 µM
IC50 [4, 18]: 73.2 ± 1.3 µM
IC50 [4, 19]: 73.2 µM
IC50 [4, 20]: 58.9 ± 1.9 µM
IC50 [4, 21]: 58.9 µM

COc1cc(C(=O)C(O)CO)ccc1O (stereo not drawn) [compound 22, C-veratroylglycol]
IC50 [5]: 138 ± 28.2 µM
IC50 [1, 7]: 82.9 ± 2.1 µM
IC50 [1, 8]: 82.9 µM
IC50 [1, 9]: 66.7 ± 1.5 µM
IC50 [1, 10]: 42 to 67 µM
IC50 [1, 11]: 66.7 µM
IC50 [3, 14]: 96 ± 1.5 µM
IC50 [3, 15]: 96 µM
IC50 [3, 16]: 88.6 ± 1.3 µM
IC50 [3, 17]: 88.6 µM
IC50 [4, 18]: 101 ± 1.6 µM
IC50 [4, 19]: 101 µM
IC50 [4, 20]: 90.8 ± 1 µM
IC50 [4, 21]: 90.8 µM

Oc1ccccc1O [compound 23, catechol]
IC50 [1, 7]: 86 ± 2.4 µM
IC50 [1, 9]: 63 ± 1.3 µM
IC50 [1, 10]: 42 to 67 µM
IC50 [2, 13]: 115 ± 2.7 µM
IC50 [3, 14]: 99.4 ± 2.1 µM
IC50 [3, 16]: 70.3 ± 2 µM
IC50 [4, 18]: 71.5 ± 2.3 µM
IC50 [4, 20]: 64.1 ± 2.5 µM

OCCc1ccc(O)cc1 [compound 50, tyrosol]
IC50 [1, 7]: 115 ± 1.5 µM
IC50 [1, 9]: 94.3 ± 1.8 µM
IC50 [1, 10]: 94 to 110 µM
IC50 [2, 13]: 145 ± 4.1 µM
IC50 [3, 14]: 128 ± 2.3 µM
IC50 [3, 16]: 114 ± 1.8 µM
IC50 [4, 18]: 112 ± 1.9 µM
IC50 [4, 20]: 100 ± 2.6 µM

COc1cc(C(CO)C(c2ccc(O)c(OC)c2)c2ccc(O)c(OC)c2)ccc1O (stereo not drawn) [compound 54, Quebecol]
IC50 [1, 7]: 95.3 ± 0.6 µM
IC50 [1, 9]: 76.2 ± 1.2 µM
IC50 ([1]; Homo sapiens, HCT-116, 72 h, 72 h, range given for the group, unit inferred, read-out: IC50 against HCT-116 cells at 72 h (moderately active group)): 75 to 85 µM
IC50 [2, 13]: 120 ± 1.5 µM
IC50 [3, 14]: 103 ± 1.7 µM
IC50 [3, 16]: 86.1 ± 0.8 µM
IC50 [4, 18]: 98.2 ± 1.5 µM
IC50 [4, 20]: 78.5 ± 1.4 µM

O=C(OC[C@H]1OC[C@H](OC(=O)c2cc(O)c(O)c(O)c2)[C@@H](O)[C@@H]1O)c1cc(O)c(O)c(O)c1 [compound 70, 2,6-di-O-galloyl-1,5-anhydro-D-glucitol]
IC50 [6]: 16 to 24 µg/mL (≈ 34.2 to 51.2 µM)
IC50 [1, 8]: 54.6 µM
IC50 [1, 11]: 43.4 µM
IC50 [2, 12]: 90.6 µM
IC50 [3, 15]: 77 µM
IC50 [3, 17]: 51.6 µM
IC50 [4, 19]: 61.6 µM
IC50 [4, 21]: 46.5 µM

O=C(OC[C@H]1OC[C@H](O)[C@@H](O)[C@@H]1O)c1cc(O)c(O)c(O)c1 [compound 71, ginnalin-B]
HCT-116 48 h IC50 ([1]; 48 h, ginnalins): 25.1 ± 1.8 µg/mL
HCT-116 72 h IC50 ([1]; 72 h, ginnalins): 20.0 ± 2.0 µg/mL
IC50 ([1]; Table 6 maple compounds, 72 h, unit inferred, read-out: HCT-116 72 h(IC50)): 50.9 µM
IC50 ([1]; read-out: HCT-116 48 h(IC50), Table 6 maple compounds, 48 h, unit inferred): 66.8 µM
CCD-18Co 72 h IC50 ([2]; ginnalins): 47.1 ± 5.3 µg/mL
IC50 ([2]; Table 6 maple compounds, unit inferred, read-out: CCD-18Co 72 h(IC50)): 107 µM
HT-29 48 h IC50 ([3]; 48 h, ginnalins): 36.2 ± 1.5 µg/mL
HT-29 72 h IC50 ([3]; 72 h, ginnalins): 27.3 ± 0.6 µg/mL
IC50 ([3]; Table 6 maple compounds, 72 h, unit inferred, read-out: HT-29 72 h(IC50)): 86.5 µM
IC50 ([3]; read-out: HT-29 48 h(IC50), Table 6 maple compounds, 48 h, unit inferred): 98.9 µM
Caco-2 48 h IC50 ([4]; 48 h, ginnalins): 31.1 ± 1.9 µg/mL
Caco-2 72 h IC50 ([4]; 72 h, ginnalins): 22.6 ± 1.9 µg/mL
IC50 ([4]; Table 6 maple compounds, 72 h, unit inferred, read-out: Caco-2 72 h(IC50)): 71.6 µM
IC50 ([4]; read-out: Caco-2 48 h(IC50), Table 6 maple compounds, 48 h, unit inferred): 98.7 µM

From US20130267474A1, “NOVEL PHYTOCHEMICALS FROM EXTRACTS OF MAPLE SYRUPS AND MAPLE TREES AND USES THEREOF” (UNIVERSITY OF RHODE ISLAND, priority 2010, published 2013)
